Consider three compounds from patent US20190247322A1, “Active Mixture of 1,2-hexanediol and 1,2-octanediol” (Symrise AG, priority 2015, published 2019).

The conditions of series [1]: water (20° dH) at 20° C., solid active agent; cited from earlier work.
Another series deals with Echerichia coli. Kind of series: Antimicrobial activity, minimum inhibitory concentration. The class given is cell-based. An excerpt: (§1) Antimicrobial activity of a mixture of 1,2-hexanediol and 1,2-octanediol (1:1) was investigated compared to the individual 1,2-diols with regard to 5 prominent microorganisms:
(§2) EC Echerichia coli PA Pseudomonas aeruginosa SA Staphylococcus aureus CA Candida albicans AN Aspergillus niger
(§3) Shown are the minimum inhibitory concentrations (MICs) in percent.

In another series the test system is Staphylococcus aureus. Described as above. Type of series: cell-based.
Text: as §1, §2, §3

In a further series the test system is Pseudomonas aeruginosa. The description is as above. Type of series: cell-based.
Text: as §1, §2, §3

For another series, the system named is Candida albicans. The series is described as above. Type of series: cell-based.
Text: as §1, §2, §3

A further series relates to Aspergillus niger. Described as above. Type of series: cell-based.
Text: as §1, §2, §3

For `Nc1nc2c(ncn2COCCO)c(=O)[nH]1` [Acyclovir, 2-Amino-1,9-dihydro-9-((2-hydroxyethoxy)methyl)-6H-Purin-6-one], the solubility in water result in series [1] was “less than 5 g/L”.
Take `CCCCC(O)CO` (centres unmarked) [Comparative Example C1, 1,2-hexanediol]: the “minimum inhibitory concentration (MIC), EC” value in the series with Echerichia coli was 1.25%. Further, in the series with Staphylococcus aureus, the “minimum inhibitory concentration (MIC), SA” value was determined as 2.50%. Also, in the series with Pseudomonas aeruginosa, the “minimum inhibitory concentration (MIC), PA” value was found to be 0.63%. Further, the “minimum inhibitory concentration (MIC), CA” value in the series on Candida albicans stood at 1.25%. In addition, the “minimum inhibitory concentration (MIC), AN” value in the series with Aspergillus niger worked out at 0.63%.
Regarding `CCCCCCC(O)CO` (centres unmarked) [Comparative Example C2, 1,2-octanediol], the “minimum inhibitory concentration (MIC), EC” value in the series with Echerichia coli was found to be 0.63%. Moreover, the “minimum inhibitory concentration (MIC), SA” value with Staphylococcus aureus is given as 1.25%. Further, in the series on Pseudomonas aeruginosa, the “minimum inhibitory concentration (MIC), PA” value is 0.63%. Moreover, the “minimum inhibitory concentration (MIC), CA” value in the series with Candida albicans amounted to 0.31%. Besides, the “minimum inhibitory concentration (MIC), AN” value in the series on Aspergillus niger was found to be 0.16%.
